Source: patent US20210169958A1, “Preparation Method of Agrocybe Aegerita Extract and its use in Preparing Medicine for Lowering Uric Acid” (Guangdong Institute of Microbiology (Guang Dong Detection …, priority 2018, published 2021)

Legend:
hyperuricemia mice [1] = experiment: Urine uric acid level in hyperuricemia mice; assay type: in vivo, Kunming mice; conditions: normal 605, model 293 μmol/L
Description: (§1) Except for the normal control group by intraperitoneal injection and intragastric administration of distilled water, the other groups were intraperitoneally injected with oxazine potassium salt at a dose of 100 mg/kg/d, and simultaneously intragastrically with a dose of 600 mg/kg/d hypoxanthine for modeling. […] Low, middle, and high-dose Agrocybe aegerita water extract administration group (Agrocybe aegerita water extract, AAW) were respectively 50, 100, 200 mg/kg concentration of the Agrocybe aegerita water extract prepared in Example 2 100 mg/kg/d for intragastric administration. […] The blood samples were separated and the serum was stored at −20° C. The organs of the mice were removed, including the liver, spleen, and kidneys, and washed with physiological saline solution. Then blot it dry with an ordinary filter and weigh it. […] (8) Statistical analysis is performed using the professional data processing program SPSS (Release 11.5, SPSS Inc., 2001). All data are expressed as mean±standard error (S.D.) and analyzed by one-way analysis of variance (ANOVA), and group means were compared by two-tailed Student's t test. Differences with statistical significance (P<0.05 or P<0.01) are indicated by the following symbols: There is a differences from the normal control group: *P<0.05, **P<0.01. […]

[2] = tested on: OAT1 (organic anion transporter 1); experiment: Western blot of kidney samples, OAT1 protein expression; assay type: in vivo, mouse; conditions: compared with the model group, each dose group
Description: Except for the normal control group by intraperitoneal injection and intragastric administration of distilled water, the other groups were intraperitoneally injected with oxazine potassium salt at a dose of 100 mg/kg/d, and simultaneously intragastrically with a dose of 600 mg/kg/d hypoxanthine for modeling. […] Low, middle, and high-dose Agrocybe aegerita water extract administration group (Agrocybe aegerita water extract, AAW) were respectively 50, 100, 200 mg/kg concentration of the Agrocybe aegerita water extract prepared in Example 2 100 mg/kg/d for intragastric administration. The normal control group and the hyperuricemia model control group were gavage with the same volume of pure water for 7 consecutive days, and in the 1, 3, 5, and 7 days to weigh the mice. […]
(7) Western blot analysis of kidney samples. Using GAPDH (glyceraldehyde-3-phosphate dehydrogenase) as an internal control, the expression of proteins including URAT1 (urate transporter 1) and OAT1 (organic anion transporter 1) were detected.
(§2) (8) Statistical analysis is performed using the professional data processing program SPSS (Release 11.5, SPSS Inc., 2001). All data are expressed as mean±standard error (S.D.) and analyzed by one-way analysis of variance (ANOVA), and group means were compared by two-tailed Student's t test. […]

hyperuricemia mice [3] = experiment: Serum uric acid level in potassium oxonate + hypoxanthine hyperuricemia mice; assay type: in vivo, Kunming mice; conditions: 7 days, normal 196, model 313 μmol/L
Description: as §1

hyperuricemia mice [4] = experiment: Serum urea nitrogen (BUN) level, renal function of hyperuricemia mice; assay type: in vivo, Kunming mice; conditions: allopurinol group; normal 4.47, model 5.96 mmol/L
Description: as §1

hyperuricemia mice [5] = experiment: Kidney (renal) coefficient and kidney observation of mice; assay type: in vivo, Kunming mice
Description: (§3) Except for the normal control group by intraperitoneal injection and intragastric administration of distilled water, the other groups were intraperitoneally injected with oxazine potassium salt at a dose of 100 mg/kg/d, and simultaneously intragastrically with a dose of 600 mg/kg/d hypoxanthine for modeling. […] Low, middle, and high-dose Agrocybe aegerita water extract administration group (Agrocybe aegerita water extract, AAW) were respectively 50, 100, 200 mg/kg concentration of the Agrocybe aegerita water extract prepared in Example 2 100 mg/kg/d for intragastric administration. […] The blood samples were separated and the serum was stored at −20° C. The organs of the mice were removed, including the liver, spleen, and kidneys, and washed with physiological saline solution. Then blot it dry with an ordinary filter and weigh it. […] The supernatant was retained for XOD activity analysis and Western blot analysis. (8) Statistical analysis is performed using the professional data processing program SPSS (Release 11.5, SPSS Inc., 2001). All data are expressed as mean±standard error (S.D.) and analyzed by one-way analysis of variance (ANOVA), and group means were compared by two-tailed Student's t test. Differences with statistical significance (P<0.05 or P<0.01) are indicated by the following symbols: There is a differences from the normal control group: *P<0.05, **P<0.01. […]

URAT1 = URAT1 expression in mouse kidney by ELISA kit; assay type: in vivo; conditions: allopurinol group; normal 96.95, model 104.85 pg/mL
Description: Except for the normal control group by intraperitoneal injection and intragastric administration of distilled water, the other groups were intraperitoneally injected with oxazine potassium salt at a dose of 100 mg/kg/d, and simultaneously intragastrically with a dose of 600 mg/kg/d hypoxanthine for modeling. […] Low, middle, and high-dose Agrocybe aegerita water extract administration group (Agrocybe aegerita water extract, AAW) were respectively 50, 100, 200 mg/kg concentration of the Agrocybe aegerita water extract prepared in Example 2 100 mg/kg/d for intragastric administration. The normal control group and the hyperuricemia model control group were gavage with the same volume of pure water for 7 consecutive days, and in the 1, 3, 5, and 7 days to weigh the mice.
(4) Take the organs obtained in step (2) and calculate the organ coefficients (liver coefficient, spleen coefficient and kidney coefficient) by dividing […]. […]
as §2

[6] = Body weight change of mice; assay type: in vivo, Kunming mice; conditions: compared with normal group, 7 days, all doses
Description: Except for the normal control group by intraperitoneal injection and intragastric administration of distilled water, the other groups were intraperitoneally injected with oxazine potassium salt at a dose of 100 mg/kg/d, and simultaneously intragastrically with a dose of 600 mg/kg/d hypoxanthine for modeling. […] Low, middle, and high-dose Agrocybe aegerita water extract administration group (Agrocybe aegerita water extract, AAW) were respectively 50, 100, 200 mg/kg concentration of the Agrocybe aegerita water extract prepared in Example 2 100 mg/kg/d for intragastric administration. […] (8) Statistical analysis is performed using the professional data processing program SPSS (Release 11.5, SPSS Inc., 2001). All data are expressed as mean±standard error (S.D.) and analyzed by one-way analysis of variance (ANOVA), and group means were compared by two-tailed Student's t test. Differences with statistical significance (P<0.05 or P<0.01) are indicated by the following symbols: There is a differences from the normal control group: *P<0.05, **P<0.01. There is a difference between the control and PO and HX-induced hyperuricemia model group, #P<0.05, ##P<0.01.

hyperuricemia mice [7] = experiment: Liver coefficient of mice; assay type: in vivo, Kunming mice; conditions: all treatment groups
Description: as §3

serum BUN (hyperuricemia mice [4]) | renal coefficient (hyperuricemia mice [5]; allopurinol group, normal 1.25%) | kidney observation (hyperuricemia mice [5]; not observed in other groups) | liver coefficient, effect on liver function (hyperuricemia mice [7]) | SMILES | urine uric acid level (hyperuricemia mice [1]; 7.8 mg/kg) | OAT1 protein expression (Western blot, gray analysis) [2] | blood uric acid of hyperuricemia mice (hyperuricemia mice [3]; 7.8 mg/kg intragastric) | urine uric acid level (hyperuricemia mice [1]; allopurinol group (5 mg/kg per method)) | blood uric acid of hyperuricemia mice (hyperuricemia mice [3]; 5 mg/kg intragastric) | URAT1 protein expression level (ELISA, kidney) (URAT1) | effect on body weight [6]
 |  |  |  | CCc1oc2ccccc2c1C(=O)c1cc(Br)c(O)c(Br)c1 [benzbromarone] | 408 µmol/L | increase the expression of OAT1 | 206 µmol |  |  |  | 
4.74 mmol/L | 1.42% | vesicular nephritis was observed | little effect on liver function | Oc1ncnc2[nH]ncc12 [allopurinol] |  |  |  | 267 µmol/L | 105 µmol | 151.96 pg/mL | inhibited the weight increase of mice
